Results: patent US11873292B2, “Trans-indoline cyclopropylamine chemical compound, and method for preparation, pharmaceutical composition, and use thereof” (Shanghai Institute of Materia Medica, Chinese Academy of …, priority 2016, dated 2024)
Where two headings read alike, the source gives them in different places.

Legend:
[1] = system: Leukemia cell line MV4-11; assay: Growth-inhibitory activity by MTS method; format: cell-based; conditions: Homo sapiens, MV4-11 cells
Text: MTS assay was used to detect the growth inhibitory effect of tested compounds on leukemia cell MV (4:11), the principle of which was that succinate dehydrogenase in mitochondria in living cells can reduce exogenous thiazole blue to insoluble Blue crystalline Formazan.
MATERIALS: Leukemia cell line MV4-11: pediatric acute lymphocytic leukemia, immunological double phenotype, AF4-MLL fusion t (4,11), is a cell growth inhibitory cell line of LSD1 inhibitor (Cancer cell. 2012, 17; 21(4): 473-487).
1. MV4-11 cells in the logarithmic growth phase were taken, accurately counted 16000 cells/mL, and the diluted cell solution was added to a 96-well plate at 90 μL per well.
2. Fresh medium was taken and sequentially added to a 96-well plate with cell fluid, 90 μL per well.
3. In the compound plate, the compound to be tested at a concentration of 10 mM and the positive compounds ORY-1001 and GSK2879552 were taken and subjected to a 3-fold concentration gradient dilution with DMSO, 8 points for each.
4. 2 μL of the diluted compound was separately added to a 96-well plate containing 98 μL of blank medium, and DMSO group was added with 2 μL of DMSO into 98 μL of blank medium, and mixed for use.
5. The compound homogeneously mixed with the medium was separately added to a 96-well plate in which cells were plated in triplicate, 20 μL per well, and well mixed. In the blank group, 200 μL of IMDM medium was added, and in the DMSO group, 180 μL of the cell-containing medium in DMSO diluted with the medium was added.
6. […]
7. After 10 days, MTS was added and the values were read after 2.5 h of incubation.

[2] = target: Human recombinant MAOA (Homo sapiens (Human), UniProt P21397); assay: MAOA in vitro activity experiment (MAO-Glo); format: biochemical
Sequence of Human recombinant MAOA (P21397 whole entry): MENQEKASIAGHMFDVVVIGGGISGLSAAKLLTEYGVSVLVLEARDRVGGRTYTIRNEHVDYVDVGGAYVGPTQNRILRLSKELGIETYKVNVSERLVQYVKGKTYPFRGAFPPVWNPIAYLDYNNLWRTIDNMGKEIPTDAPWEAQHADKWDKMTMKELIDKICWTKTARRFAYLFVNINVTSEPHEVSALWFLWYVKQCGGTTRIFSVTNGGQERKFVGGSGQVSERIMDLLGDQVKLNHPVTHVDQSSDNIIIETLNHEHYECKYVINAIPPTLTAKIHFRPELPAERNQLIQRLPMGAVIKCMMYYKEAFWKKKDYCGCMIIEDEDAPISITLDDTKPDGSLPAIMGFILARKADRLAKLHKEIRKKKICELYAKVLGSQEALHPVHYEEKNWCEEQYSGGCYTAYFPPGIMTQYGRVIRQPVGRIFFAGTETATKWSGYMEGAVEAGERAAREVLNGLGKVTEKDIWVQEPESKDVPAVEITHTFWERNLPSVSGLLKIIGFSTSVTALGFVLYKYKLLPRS

[3] = target: Human recombinant LSD1 (Homo sapiens (Human), UniProt O60341); assay: LSD1 in vitro activity assay (LANCE Ultra LSD1 Histone H3-Lysine 4 Demethylase Assay); format: biochemical; conditions: LSD1 inhibition
[4] = target: human recombinant MAOB (Homo sapiens (Human), UniProt P27338); assay: MAOB in vitro activity experiment (MAO-Glo); format: biochemical
Sequence of human recombinant MAOB (P27338 whole entry): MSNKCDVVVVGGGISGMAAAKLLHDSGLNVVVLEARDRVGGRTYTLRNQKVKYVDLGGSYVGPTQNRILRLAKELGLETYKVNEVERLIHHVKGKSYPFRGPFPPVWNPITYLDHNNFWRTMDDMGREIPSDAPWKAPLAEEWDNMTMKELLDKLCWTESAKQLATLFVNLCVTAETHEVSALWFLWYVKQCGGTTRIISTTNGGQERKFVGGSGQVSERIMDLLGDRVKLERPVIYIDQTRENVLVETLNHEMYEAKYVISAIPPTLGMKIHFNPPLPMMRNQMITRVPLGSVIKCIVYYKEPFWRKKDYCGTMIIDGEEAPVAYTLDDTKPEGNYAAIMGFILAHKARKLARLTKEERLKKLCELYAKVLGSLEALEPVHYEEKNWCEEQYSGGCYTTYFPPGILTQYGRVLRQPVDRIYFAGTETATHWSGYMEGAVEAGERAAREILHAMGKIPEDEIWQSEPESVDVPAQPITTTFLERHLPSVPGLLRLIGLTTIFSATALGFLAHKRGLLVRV

SMILES | IC50 ([1]; 3 D, read-out: MTS 3 D) | IC50 ([1]; 10 D, read-out: MTS 10 D) | IC50 [2] | IC50 [4] | IC50 [3] | melting point
O=S(=O)(c1ccccc1)N1CCc2cc([C@@H]3C[C@H]3NC3CCNCC3)ccc21 (relative stereo) [Compound A15, trans-N-(4-piperidinyl)-2-(1-(phenylsulfonyl)indolin-5-yl)cyclopropylamine] | 3.4 ± 1.64 µM | 0.18 ± 0.49 µM | > 100 µM | > 100 µM | 0.0227 ± 0.00037 µM | 
CS(=O)(=O)N1CCc2cc([C@@H]3C[C@H]3NCC3CCNCC3)ccc21 (relative stereo) [Compound A40, Trans-2-(1-(methylsulfonyl)indolin-5-yl)-N-(piperidin-4-ylmethyl)cyclopropylamine] |  |  | > 100 µM | > 100 µM |  | 
CCCS(=O)(=O)N1CCc2cc([C@@H]3C[C@H]3NCC3CCNCC3)ccc21 (relative stereo) [Compound A41, trans-N-(piperidin-4-ylmethyl)-2-(1-(propylsulfonyl)indolin-5-yl)cyclopropylamine] |  |  | > 100 µM | > 100 µM |  | 187 to 191 °C
O=S(=O)(C1CCCCC1)N1CCc2cc([C@@H]3C[C@H]3NCC3CCNCC3)ccc21 (relative stereo) [Compound A43, trans-2-(1-(cyclohexylsulfonyl)indolin-5-yl)-N-(piperidin-4-ylmethyl)cyclopropylamine] |  |  | > 100 µM | > 100 µM |  | 
O=C(c1ccccc1)N1CCc2cc([C@@H]3C[C@H]3NCC3CCNCC3)ccc21 (relative stereo) [Compound A45, trans-phenyl (5-(2-(piperidin-4-ylmethylamino)cyclopropyl)indolin-1-yl)methanone] | > 20 µM | 4.14 ± 3.47 µM | > 100 µM | 32.9 ± 1.24 µM |  | 
O=C(Cc1ccccc1)N1CCc2cc([C@@H]3C[C@H]3NCC3CCNCC3)ccc21 (relative stereo) [Compound A49, Trans-2-phenyl-1-(5-(2-(piperidin-4-ylmethylamino)cyclopropyl)indolin-1-yl)ethanone] | > 20 µM | 3.23 ± 3.64 µM | > 100 µM | > 100 µM |  | 
CCC(=O)N1CCc2cc([C@@H]3C[C@H]3NCC3CCNCC3)ccc21 (relative stereo) [Compound A53, Trans-1-(5-(2-(piperidin-4-ylmethylamino)cyclopropyl)indolin-1-yl)propan-1-one] |  |  | > 100 µM | > 100 µM |  | 
CCCC(=O)N1CCc2cc([C@@H]3C[C@H]3NCC3CCNCC3)ccc21 (relative stereo) [Compound A54, Trans-1-(5-(2-(piperidin-4-ylmethylamino)cyclopropyl)indolin-1-yl)butan-1-one] |  |  | > 100 µM | > 100 µM |  | 
CCCCC(=O)N1CCc2cc([C@@H]3C[C@H]3NCC3CCNCC3)ccc21 (relative stereo) [Compound A55, Trans-1-(5-(2-(piperidin-4-ylmethylamino)cyclopropyl)indolin-1-yl)pentan-1-one] |  |  | > 100 µM | > 100 µM |  | 
COCCC(=O)N1CCc2cc([C@@H]3C[C@H]3NCC3CCNCC3)ccc21 (relative stereo) [Compound A56, Trans-3-methoxy-1-(5-(2-(piperidin-4-ylmethylamino)cyclopropyl)indolin-1-yl)propan-1-one] |  |  | > 100 µM | > 100 µM | 0.0269 ± 0.0221 µM | 
CC(C)(C)C(=O)N1CCc2cc([C@@H]3C[C@H]3NCC3CCNCC3)ccc21 (relative stereo) [Compound A58, Trans-2,2-dimethyl-1-(5-(2-(piperidin-4-ylmethylamino)cyclopropyl)indolin-1-yl)propan-1-one] | > 20 µM | 1.23 ± 1.13 µM | > 100 µM | 70.7 ± 12.6 µM |  | 
O=C(C1CCCCC1)N1CCc2cc([C@@H]3C[C@H]3NCC3CCNCC3)ccc21 (relative stereo) [Compound A59, Trans-cyclohexyl (5-(2-(piperidin-4-ylmethylamino)cyclopropyl)indolin-1-yl)methanone] |  |  |  |  |  | 166 to 168 °C
O=S(=O)(c1ccccc1)N1CCc2cc(C3CC3NCc3c[nH]c4ccccc34)ccc21 (stereo not shown) [Compound A8] | 1.25 ± 0.51 µM | 0.6 ± 0.13 µM |  |  |  | 
O=S(=O)(c1ccccc1)N1CCc2cc(C3CC3NCC3CCNCC3)ccc21 (stereo not drawn) [Compound A14, trans-N-(4-piperidinylmethylene)-2-(1-(phenylsulfonyl)indolin-5-yl)cyclopropylamine] | 7.91 ± 1.61 µM | 1.36 ± 0.92 µM |  |  |  | 
NC1CCC(NC2CC2c2ccc3c(c2)CCN3S(=O)(=O)c2ccccc2)CC1 (stereo not drawn) [Compound A19, trans-N1-(2-(1-(phenylsulfonyl)indolin-5-yl)cyclopropyl)cyclohexane-1,4-diamine] | 8.55 ± 1.84 µM | 1.16 ± 0.26 µM |  |  |  | 
O=C(O)c1ccc(CN2CCC(CN[C@@H]3C[C@H]3c3ccccc3)CC2)cc1 [GSK2879552, GSK-2879552, reference compound] | > 20 µM | 1.81 µM | > 100 µM | > 100 µM | 0.404 ± 0.0308 µM | 

More lines, main results first:

IC50 ([1]; 3 D, read-out: MTS 3 D) | IC50 ([1]; 10 D, read-out: MTS 10 D) | IC50 [2] | IC50 [4] | SMILES | IC50 [3] | melting point
8.25 ± 1.7 µM | 1.21 ± 0.4 µM | > 100 µM | > 100 µM | O=S(=O)(c1ccccc1)N1CCc2cc([C@@H]3C[C@H]3NCCC3CCNCC3)ccc21 (relative stereo) [Compound A16, trans-N-(4-piperidinylethyl)-2-(1-(phenylsulfonyl)indolin-5-yl)cyclopropylamine] |  | 
 |  | 16.2 ± 0.31 µM | 9.22 ± 0.98 µM | O=S(=O)(c1ccccc1)N1CCc2cc([C@@H]3C[C@H]3NCC3CNC3)ccc21 (relative stereo) [Compound A17, trans-N-(azetidin-3-ylmethyl)-2-(1-(phenylsulfonyl)indolin-5-yl)cyclopropylamine] |  | 
 |  | > 100 µM | > 100 µM | O=S(=O)(c1ccccc1)N1CCc2cc([C@@H]3C[C@H]3NC3CC4(CCNCC4)C3)ccc21 (relative stereo) [Compound A20, trans-N-(2-(1-(phenylsulfonyl)indolin-5-yl)cyclopropyl)-7-azaspiro[3.5]nonane-2-amine] |  | 
 |  | > 100 µM | > 100 µM | CC1(CN[C@@H]2C[C@H]2c2ccc3c(c2)CCN3S(=O)(=O)c2ccccc2)CCNCC1 (relative stereo) [Compound A21, trans-N-((4-methylpiperidin-4-yl)methyl)-2-(1-(phenylsulfonyl)indolin-5-yl)cyclopropylamine] |  | 
 |  | 15.9 ± 2 µM | > 100 µM | O=S(=O)(c1ccccc1)N1CCc2cc([C@@H]3C[C@H]3NCC3CCN(Cc4ccccc4)CC3)ccc21 (relative stereo) [Compound A24, trans-N-((1-benzylpiperidin-4-yl)methyl)-2-(1-(phenylsulfonyl)indolin-5-yl)cyclopropylamine] |  | 
 |  | > 100 µM | 89.4 ± 2.05 µM | O=S(=O)(c1ccc(-c2ccccc2)cc1)N1CCc2cc([C@@H]3C[C@H]3NCC3CCNCC3)ccc21 (relative stereo) [Compound A32, Trans-2-(1-(biphenyl-4-ylsulfonyl)indolin-5-yl)-N-(piperidin-4-ylmethyl)cyclopropylamine] |  | 
 |  | 35.5 ± 0.87 µM | 82 ± 1.39 µM | O=S(=O)(c1ccc2ccccc2c1)N1CCc2cc([C@@H]3C[C@H]3NCC3CCNCC3)ccc21 (relative stereo) [Compound A33, Trans-2-(1-(naphthalen-2-ylsulfonyl)indolin-5-yl)-N-(piperidin-4-ylmethyl)cyclopropylamine] |  | 
 |  | 49.8 ± 20.9 µM | 86.2 ± 18.7 µM | O=S(=O)(c1cccc(C(F)(F)F)c1)N1CCc2cc([C@@H]3C[C@H]3NCC3CCNCC3)ccc21 (relative stereo) [Compound A35, trans-N-(piperidin-4-ylmethyl)-2-(1-(3-(trifluoromethyl)benzenesulfonyl)indolin-5-yl)cyclopropylamine] |  | 
 |  | 73.9 ± 1.34 µM | 40.9 ± 1.41 µM | O=S(=O)(c1cccc(Cl)c1)N1CCc2cc([C@@H]3C[C@H]3NCC3CCNCC3)ccc21 (relative stereo) [Compound A38, trans-2-(1-(3-chlorobenzenesulfonyl)indolin-5-yl)-N-(piperidin-4-ylmethyl)cyclopropylamine] |  | 
 |  | 38.6 ± 5.23 µM | > 100 µM | COc1cccc(S(=O)(=O)N2CCc3cc([C@@H]4C[C@H]4NCC4CCNCC4)ccc32)c1 (relative stereo) [Compound A39, trans-2-(1-(3-methoxybenzenesulfonyl)indolin-5-yl)-N-(piperidin-4-ylmethyl)cyclopropylamine] |  | 
 |  | 86.6 ± 1.05 µM | 3.14 ± 0.15 µM | O=S(=O)(N1CCc2cc([C@@H]3C[C@H]3NCC3CCNCC3)ccc21)C(F)(F)F (relative stereo) [Compound A42, trans-N-(piperidin-4-ylmethyl)-2-(1-(trifluoromethanesulfonyl)indolin-5-yl)cyclopropylamine] |  | 
 |  | 96.3 ± 2.05 µM |  | NC1CCC(CNC2CC2c2ccc3c(c2)CCN3S(=O)(=O)c2ccccc2)CC1 (stereo not drawn) [Compound A18, trans-4-((2-(1-(phenylsulfonyl)indolin-5-yl)cyclopropylamino)methyl)cyclohexylamine] |  | 
